The test system of the assay is HBV. Briefly: HBV inhibition assay in HepAD38 cells (extracellular HBV DNA by direct qPCR). The class given is cell-based, Hepatitis B virus. Particulars: 96 hours; for EC50: 8-point dose-response curve, read-out: HBV inh EC50. A general note: Quantitative PCR measures a nucleic acid by following its amplification.
Setting [1] is: Hepatitis B virus, 0.1 μM, relative to non-treated reference, read-out: Anti HBV Activity (conc μM).

Where two headings read alike, the source gives them in different places.

With `Cn1cc2c(c1C(=O)Nc1cc(F)c(F)c(F)c1)OCC1CN(C(=O)CO)CC1NS2(=O)=O` (stereo not drawn) [Example E71, cis-2-(2-hydroxyacetyl)-7-methyl-N-(3,4,5-trifluorophenyl)-2,3,3a,4,10,10a-hexahydro-1H,7H-dipyrrolo[3,4-b:3′,4′-f][1,4,5]oxathiazocine-8-carboxamide 5,5-dioxide], under setting [1], the inhibition at 0.1 µM was less than 50%. On to `CCOC(=O)N1CC2NS(=O)(=O)c3cn(C)c(C(=O)Nc4cc(F)c(F)c(F)c4)c3OCC2(C)C1` (single isomer, unassigned) [Example E92, Ethyl 7,10a-dimethyl-8-((3,4,5-trifluorophenyl)carbamoyl)-3a,4,10,10a-tetrahydro-1H,7H-dipyrrolo[3,4-b:3′,4′-f][1,4,5]oxathiazocine-2(3H)-carboxylate 5,5-dioxide (Chiral 3aS,10aS or 3aR,10aR - Stereochemistry unknown)], for which the concentration for a half-maximal effect (EC50) (commonly the midpoint of the concentration-response curve) was less than 1000 nM. As for `Cc1nnc(C(=O)N2C[C@H]3COc4c(cn(C)c4C(=O)Nc4ccc(F)c(C)c4)S(=O)(=O)N[C@@H]3C2)o1` (relative stereo) [Example E146, Trans-N-(4-fluoro-3-methylphenyl)-7-methyl-2-(5-methyl-1,3,4-oxadiazole-2-carbonyl)-2,3,3a,4,10,10a-hexahydro-1H,7H-dipyrrolo[3,4-b:3′,4′-f][1,4,5]oxathiazocine-8-carboxamide 5,5-dioxide], under “Hepatitis B virus”, the EC50 is less than 1000 nM. With `Cc1cc(NC(=O)c2c3c(cn2C)S(=O)(=O)NC2CN(C(=O)c4cccnc4)CC2CO3)ccc1F` (stereo not drawn) [Example E54, cis-N-(4-fluoro-3-methylphenyl)-7-methyl-2-nicotinoyl-2,3,3a,4,10,10a-hexahydro-1H,7H-dipyrrolo[3,4-b:3′,4′-f][1,4,5]oxathiazocine-8-carboxamide 5,5-dioxide], the inhibition at 0.1 µM under setting [1] is more than 50%. On the same count and under the same terms, to `Cc1cc(NC(=O)c2c3c(cn2C)S(=O)(=O)NC2CN(C(=O)c4ccc(O)nc4)CC2CO3)ccc1F` (stereo not drawn) [Example E53, cis-N-(4-fluoro-3-methylphenyl)-2-(6-hydroxynicotinoyl)-7-methyl-2,3,3a,4,10,10a-hexahydro-1H,7H-dipyrrolo[3,4-b:3′,4′-f][1,4,5]oxathiazocine-8-carboxamide 5,5-dioxide] belongs less than 50%. Still for that read-out and setting: as for `Cn1cc2c(c1C(=O)Nc1cc(F)c(F)c(F)c1)OCC1CN(c3cnccn3)CC1NS2(=O)=O` (stereo not drawn) [Example E82, cis-7-methyl-2-(pyrazin-2-yl)-N-(3,4,5-trifluorophenyl)-2,3,3a,4,10,10a-hexahydro-1H,7H-dipyrrolo[3,4-b:3′,4′-f][1,4,5]oxathiazocine-8-carboxamide 5,5-dioxide], the figure is more than 50%. As to `Cn1cc2c(c1C(=O)Nc1cc(F)c(F)c(F)c1)OCC1CCCC1NS2(=O)=O` (racemic) [Example E28, cis (5aR,8aS and 5aS,8aR)-2-methyl-N-(3,4,5-trifluorophenyl)-5a,6,7,8,8a,9-hexahydro-2H,5H-cyclopenta[f]pyrrolo[3,4-b][1,4,5]oxathiazocine-1-carboxamide 4,4-dioxide], the inhibition at 0.1 µM under setting [1] is more than 50%. The EC50 (Hepatitis B virus) is less than 1000 nM. For `CCOC(=O)N1CC2NS(=O)(=O)c3cn(C)c(C(=O)Nc4ccc(F)c(C)c4)c3OCC2(C)C1` (single isomer, unassigned) [Example E93, Ethyl 8-((4-fluoro-3-methylphenyl)carbamoyl)-7,10a-dimethyl-3a,4,10,10a-tetrahydro-1H,7H-dipyrrolo[3,4-b:3′,4′-f][1,4,5]oxathiazocine-2(3H)-carboxylate 5,5-dioxide (Chiral 3aS,10aS or 3aR,10aR - Stereochemistry unknown)], the EC50 was less than 1000 nM. The same measure, in the same setting: as for `Cc1nnc(C(=O)N2CC3NS(=O)(=O)c4cn(C)c(C(=O)Nc5ccc(F)c(C)c5)c4OCC3(C)C2)o1` (single isomer, unassigned) [Example E95, N-(4-fluoro-3-methylphenyl)-7,10a-dimethyl-2-(5-methyl-1,3,4-oxadiazole-2-carbonyl)-2,3,3a,4,10,10a-hexahydro-1H,7H-dipyrrolo[3,4-b:3′,4′-f][1,4,5]oxathiazocine-8-carboxamide 5,5-dioxide (Chiral 3aS,10aS or 3aR,10aR - Stereochemistry unknown)], the figure is less than 1000 nM. For `Cc1cc(NC(=O)c2c3c(cn2C)S(=O)(=O)N[C@H]2CN(C(=O)C4COC4)C[C@H]2CO3)ccc1F` [Example E108, (3aR,10aR)—N-(4-fluoro-3-methylphenyl)-7-methyl-2-(oxetane-3-carbonyl)-2,3,3a,4,10,10a-hexahydro-1H,7H-dipyrrolo[3,4-b:3′,4′-f][1,4,5]oxathiazocine-8-carboxamide 5,5-dioxide], the EC50 (Hepatitis B virus) was less than 1000 nM. Take `Cc1nnc(C(=O)N2C[C@H]3COc4c(cn(C)c4C(=O)Nc4ccc(F)c(C)c4)S(=O)(=O)N[C@H]3C2)o1` [Example E98, (3aR,10aR)—N-(4-fluoro-3-methylphenyl)-7-methyl-2-(5-methyl-1,3,4-oxadiazole-2-carbonyl)-2,3,3a,4,10,10a-hexahydro-1H,7H-dipyrrolo[3,4-b:3′,4′-f][1,4,5]oxathiazocine-8-carboxamide 5,5-dioxide]: the EC50 (Hepatitis B virus) was less than 1000 nM.

For `CC(C)NS(=O)(=O)N1CC2COc3c(cn(C)c3C(=O)Nc3cc(F)c(F)c(F)c3)S(=O)(=O)NC2C1` (racemic) [Example E21, cis-2-(N-isopropylsulfamoyl)-7-methyl-N-(3,4,5-trifluorophenyl)-2,3,3a,4,10,10a-hexahydro-1H,7H-dipyrrolo[3,4-b:3′,4′-f][1,4,5]oxathiazocine-8-carboxamide 5,5-dioxide], the inhibition at 0.1 µM under setting [1] was more than 50%. The EC50 (Hepatitis B virus) was less than 1000 nM. Taken in the same sequence, the figures for `CNC(=O)N1CC2COc3c(cn(C)c3C(=O)Nc3cc(F)c(F)c(F)c3)S(=O)(=O)NC2C1` (racemic) [Example E23, (3aR,10aR) and (3aS,10aS)—N^2,7-dimethyl-N^8-(3,4,5-trifluorophenyl)-3a,4,10,10a-tetrahydro-1H,7H-dipyrrolo[3,4-b:3′,4′-f][1,4,5]oxathiazocine-2,8(3H)-dicarboxamide 5,5-dioxide] were more than 50% and less than 1000 nM. Regarding `Cn1cc2c(c1C(=O)Nc1ccc(F)c(F)c1)OC[C@H]1C[C@H](C1)NS2(=O)=O` [Example E5], under “Hepatitis B virus, 1 μM, relative to non-treated reference, read-out: Anti HBV Activity (conc μM)”, the inhibition at 1 µM was less than 50%. On to `CCOC(=O)N1CC2COc3c(cn(C)c3C(=O)Nc3ccc(F)c(C(F)F)c3)S(=O)(=O)NC2C1` (single isomer, unassigned) [Example E44, Ethyl 8-((3-(difluoromethyl)-4-fluorophenyl)carbamoyl)-7-methyl-3a,4,10,10a-tetrahydro-1H,7H-dipyrrolo[3,4-b:3′,4′-f][1,4,5]oxathiazocine-2(3H)-carboxylate 5,5-dioxide (Chiral 3aS,10aS or 3aR,10aR - Stereochemistry unknown)], for which, for the setting “0.1 μM, relative to non-treated reference”, the “Anti HBV Activity (conc μM)” value is on record as “B (0.1) (HBV inhibition less than 50% at the concentration indicated in the table)”. In the case of `Cc1cc(NC(=O)c2c3c(cn2C)S(=O)(=O)NC2CCN(C(=O)c4ncoc4C)CC2CO3)ccc1F` (racemic) [Example E134, Trans-N-(4-fluoro-3-methylphenyl)-2-methyl-8-(5-methyloxazole-4-carbonyl)-5,5a,6,7,8,9,9a,10-octahydro-2H-pyrido[4,3-f]pyrrolo[3,4-b][1,4,5]oxathiazocine-1-carboxamide 4,4-dioxide], the EC50 (Hepatitis B virus) is less than 1000 nM. Take `Cc1cc(NC(=O)c2c3c(cn2C)S(=O)(=O)NC2CN(CC(F)(F)F)CC2CO3)ccc1F` (stereo not drawn) [Example E80, cis-N-(4-fluoro-3-methylphenyl)-7-methyl-2-(2,2,2-trifluoroethyl)-2,3,3a,4,10,10a-hexahydro-1H,7H-dipyrrolo[3,4-b:3′,4′-f][1,4,5]oxathiazocine-8-carboxamide 5,5-dioxide]: under setting [1], the inhibition at 0.1 µM is more than 50%. As to `Cc1nnc(C(=O)N2CC3NS(=O)(=O)c4cn(C)c(C(=O)Nc5ccc(F)c(C)c5)c4OCC3(C)C2)o1` (single isomer, unassigned) [Example E96, N-(4-fluoro-3-methylphenyl)-7,10a-dimethyl-2-(5-methyl-1,3,4-oxadiazole-2-carbonyl)-2,3,3a,4,10,10a-hexahydro-1H,7H-dipyrrolo[3,4-b:3′,4′-f][1,4,5]oxathiazocine-8-carboxamide 5,5-dioxide (Chiral 3aS,10aS or 3aR,10aR - Stereochemistry unknown)], the EC50 was less than 1000 nM.

With `Cc1nc(C(=O)N2C[C@H]3COc4c(cn(C)c4C(=O)Nc4ccc(F)c(C)c4)S(=O)(=O)N[C@H]3C2)c(C)o1` [Example E114, (3aR,10aR)-2-(2,5-dimethyloxazole-4-carbonyl)-N-(4-fluoro-3-methylphenyl)-7-methyl-2,3,3a,4,10,10a-hexahydro-1H,7H-dipyrrolo[3,4-b:3′,4′-f][1,4,5]oxathiazocine-8-carboxamide 5,5-dioxide], the EC50 (Hepatitis B virus) was less than 1000 nM. On the same count and under the same terms, as for `Cn1cc2c(c1C(=O)Nc1cc(F)c(F)c(F)c1)OC[C@@H]1CN(C(=O)c3cocn3)C[C@@H]1NS2(=O)=O` [Example E106, (3aR,10aR)-7-methyl-2-(oxazole-4-carbonyl)-N-(3,4,5-trifluorophenyl)-2,3,3a,4,10,10a-hexahydro-1H,7H-dipyrrolo[3,4-b:3′,4′-f][1,4,5]oxathiazocine-8-carboxamide 5,5-dioxide], the figure is less than 1000 nM.

Consider `Cn1cc2c(c1C(=O)Nc1cc(F)c(F)c(F)c1)OCC1CN(C(=O)c3cocn3)CC1NS2(=O)=O` (stereo not drawn) [Example E65, cis-7-methyl-2-(oxazole-4-carbonyl)-N-(3,4,5-trifluorophenyl)-2,3,3a,4,10,10a-hexahydro-1H,7H-dipyrrolo[3,4-b:3′,4′-f][1,4,5]oxathiazocine-8-carboxamide 5,5-dioxide], for which the EC50 (Hepatitis B virus) was less than 1000 nM. As to `Cc1nnc(C(=O)N2CC3NS(=O)(=O)c4cn(C)c(C(=O)Nc5ccc(F)c(C)c5)c4OCC3(C)C2)o1` (stereo not drawn) [Example E86, cis-N-(4-fluoro-3-methylphenyl)-7,10a-dimethyl-2-(5-methyl-1,3,4-oxadiazole-2-carbonyl)-2,3,3a,4,10,10a-hexahydro-1H,7H-dipyrrolo[3,4-b:3′,4′-f][1,4,5]oxathiazocine-8-carboxamide 5,5-dioxide], for the setting “Hepatitis B virus”, the EC50 was less than 1000 nM.

For the origin of these results see patent publication US11504382B2, “Tricyclic inhibitors of Hepatitis B virus” (Antios Therapeutics, Inc., priority 2018, dated 2022).
